According to BigSolDB 2.1:

Cn1c(=O)c2[nH]cnc2n(C)c1=O
Conditions | solubility (mole fraction)
in acetone, 288.02 K | 0.000667
in acetone, 298.15 K | 0.00093
in acetone, 308.15 K | 0.00124
in acetone, 318.15 K | 0.00147
in acetone, 328.1 K | 0.0018
in ethanol, 288.01 K | 0.0008
in ethanol, 297.95 K | 0.00116
in ethanol, 308.01 K | 0.00173
in ethanol, 318.11 K | 0.00254
in ethanol, 328.09 K | 0.00319
in ethyl acetate, 288.02 K | 0.000502
in ethyl acetate, 298.15 K | 0.000673
in ethyl acetate, 308.15 K | 0.000901
in ethyl acetate, 318.15 K | 0.0011
in ethyl acetate, 328.1 K | 0.00141
in methanol, 288.06 K | 0.00077
in methanol, 298.16 K | 0.00137
in methanol, 308.16 K | 0.00217
in methanol, 318.13 K | 0.00298
in methanol, 328.19 K | 0.00394
in n-propanol, 288.01 K | 0.000912
in n-propanol, 297.95 K | 0.00136
in n-propanol, 308.01 K | 0.00204
in n-propanol, 318.11 K | 0.00313
in n-propanol, 328.09 K | 0.00423
in water, 288.06 K | 0.000325
in water, 298.16 K | 0.00063
in water, 308.16 K | 0.000991
in water, 318.13 K | 0.00141
in water, 328.19 K | 0.00216

Cn1cnc2c1c(=O)[nH]c(=O)n2C
Conditions | solubility (mole fraction)
in acetone, 288.13 K | 1.47e-05
in acetone, 297.99 K | 2.23e-05
in acetone, 308.08 K | 2.99e-05
in acetone, 318.07 K | 4.57e-05
in acetone, 328.17 K | 6.77e-05
in ethanol, 288.15 K | 1.38e-05
in ethanol, 298.2 K | 2.26e-05
in ethanol, 308.19 K | 3.85e-05
in ethanol, 318.16 K | 6.31e-05
in ethanol, 328.16 K | 0.000106
in ethyl acetate, 288.13 K | 1.04e-05
in ethyl acetate, 297.99 K | 1.59e-05
in ethyl acetate, 308.08 K | 2.28e-05
in ethyl acetate, 318.07 K | 3.33e-05
in ethyl acetate, 328.17 K | 4.94e-05
in methanol, 288.07 K | 2.82e-05
in methanol, 298.1 K | 4.34e-05
in methanol, 308.93 K | 7e-05
in methanol, 318.62 K | 0.00011
in methanol, 328.15 K | 0.000163
in n-propanol, 288.15 K | 1.18e-05
in n-propanol, 298.2 K | 2.06e-05
in n-propanol, 308.19 K | 3.71e-05
in n-propanol, 318.16 K | 6.37e-05
in n-propanol, 328.16 K | 0.000109
in water, 288.07 K | 3.09e-05
in water, 298.1 K | 4.73e-05
in water, 308.93 K | 6.93e-05
in water, 318.62 K | 0.0001
in water, 328.15 K | 0.000145
